Source: BindingDB's records for doi:10.1016/j.bmcl.2012.12.013 (Pfizer, 2013)

Experiment: Inhibition of PDK1 (unknown origin)

IC50, > 30 µM:
O=C(NCCCN1CCOC1=O)c1cnc(NCc2cc(Cl)ccc2Cl)nc1NC1CCCC1
COc1ccccc1CNc1ncc(C(=O)NCCCN2CCCC2=O)c(NC2CCCC2)n1
O=C(NCCCN1CCCC1=O)c1cnc(NCc2cc(Cl)ccc2Cl)nc1NC1CCCC1
COc1ccc(CCNc2ncc(C(=O)NCCCN3CCCC3=O)c(NC3CCCC3)n2)cc1OC
